Where “and” joins values, the source holds several entries; their conditions need not be identical. Equal entries are not always repeated.
What was measured:
[1] = molecular target: α-glucosidase GAA (Myozyme) (Homo sapiens, UniProt P10253); experiment: in vitro apparent IC50, GAA (Myozyme), 4-MU-α-D-glucopyranoside; format: biochemical; parameters: purchased Sanofi Genzyme; conditions: Myozyme 47 nM, pH 4.0, 30 min preincubation, mean ± SD
[2] = molecular target: T1, glucosylceramide synthase (GCS) (Mus musculus, UniProt O88693); experiment: in situ cell inhibition of GCS in RAW 264.7 cells, glucosylation of C6-NBD-ceramide; format: cell-based; conditions: mean ± SD
T1 construct: endogenous in cells; host or cells: RAW 264.7
T1 sequence (O88693 1-394): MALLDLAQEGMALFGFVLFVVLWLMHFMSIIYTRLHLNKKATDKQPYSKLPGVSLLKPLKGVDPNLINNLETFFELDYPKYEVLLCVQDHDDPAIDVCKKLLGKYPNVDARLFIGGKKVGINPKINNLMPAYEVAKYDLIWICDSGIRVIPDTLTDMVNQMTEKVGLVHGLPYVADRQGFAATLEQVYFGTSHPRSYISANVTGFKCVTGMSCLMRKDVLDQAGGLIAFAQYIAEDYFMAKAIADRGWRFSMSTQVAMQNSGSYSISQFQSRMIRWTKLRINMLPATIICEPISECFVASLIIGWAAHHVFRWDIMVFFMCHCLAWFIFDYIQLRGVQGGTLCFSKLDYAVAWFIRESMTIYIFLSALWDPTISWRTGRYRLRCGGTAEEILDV

[3] = molecular target: T2, β-glucosidase GBA1 (Cerezyme) (Homo sapiens, UniProt P04062, R534H); experiment: in vitro apparent IC50, GBA1 (Cerezyme), 4-MU-β-D-glucopyranoside; format: biochemical; conditions: pH 5.2, mean ± SD, read-out: in vitro GBA IC50
T2 construct: purchased
T2 sequence (P04062 40-536 R534H): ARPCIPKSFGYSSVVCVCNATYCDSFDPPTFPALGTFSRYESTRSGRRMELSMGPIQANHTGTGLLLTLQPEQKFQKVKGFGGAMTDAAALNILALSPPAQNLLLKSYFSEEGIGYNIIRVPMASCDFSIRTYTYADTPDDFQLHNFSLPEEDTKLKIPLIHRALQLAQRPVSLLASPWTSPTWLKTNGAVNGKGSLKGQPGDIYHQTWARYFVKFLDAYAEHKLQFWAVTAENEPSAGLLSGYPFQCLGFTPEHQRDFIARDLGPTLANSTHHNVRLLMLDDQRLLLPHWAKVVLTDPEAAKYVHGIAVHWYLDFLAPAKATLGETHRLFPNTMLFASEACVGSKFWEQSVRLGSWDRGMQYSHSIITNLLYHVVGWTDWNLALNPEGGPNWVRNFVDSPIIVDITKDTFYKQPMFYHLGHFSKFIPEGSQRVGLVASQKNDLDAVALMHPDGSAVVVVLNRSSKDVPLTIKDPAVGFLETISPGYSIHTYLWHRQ

[4] = molecular target: T3, ER α-glucosidase II (GANAB) (Homo sapiens, UniProt Q14697); experiment: in vitro apparent IC50, GANAB in fibroblast lysates, 4-MU-α-D-glucopyranoside; format: biochemical; conditions: for IC50: apparent IC50, Pompe disease fibroblast lysates, pH 7.0, mean ± SD
T3 construct: GANAB (from Pompe Disease Fibroblast Lysates); endogenous in cells; host or cells: human fibroblasts (lysate)
T3 sequence (Q14697 29-944): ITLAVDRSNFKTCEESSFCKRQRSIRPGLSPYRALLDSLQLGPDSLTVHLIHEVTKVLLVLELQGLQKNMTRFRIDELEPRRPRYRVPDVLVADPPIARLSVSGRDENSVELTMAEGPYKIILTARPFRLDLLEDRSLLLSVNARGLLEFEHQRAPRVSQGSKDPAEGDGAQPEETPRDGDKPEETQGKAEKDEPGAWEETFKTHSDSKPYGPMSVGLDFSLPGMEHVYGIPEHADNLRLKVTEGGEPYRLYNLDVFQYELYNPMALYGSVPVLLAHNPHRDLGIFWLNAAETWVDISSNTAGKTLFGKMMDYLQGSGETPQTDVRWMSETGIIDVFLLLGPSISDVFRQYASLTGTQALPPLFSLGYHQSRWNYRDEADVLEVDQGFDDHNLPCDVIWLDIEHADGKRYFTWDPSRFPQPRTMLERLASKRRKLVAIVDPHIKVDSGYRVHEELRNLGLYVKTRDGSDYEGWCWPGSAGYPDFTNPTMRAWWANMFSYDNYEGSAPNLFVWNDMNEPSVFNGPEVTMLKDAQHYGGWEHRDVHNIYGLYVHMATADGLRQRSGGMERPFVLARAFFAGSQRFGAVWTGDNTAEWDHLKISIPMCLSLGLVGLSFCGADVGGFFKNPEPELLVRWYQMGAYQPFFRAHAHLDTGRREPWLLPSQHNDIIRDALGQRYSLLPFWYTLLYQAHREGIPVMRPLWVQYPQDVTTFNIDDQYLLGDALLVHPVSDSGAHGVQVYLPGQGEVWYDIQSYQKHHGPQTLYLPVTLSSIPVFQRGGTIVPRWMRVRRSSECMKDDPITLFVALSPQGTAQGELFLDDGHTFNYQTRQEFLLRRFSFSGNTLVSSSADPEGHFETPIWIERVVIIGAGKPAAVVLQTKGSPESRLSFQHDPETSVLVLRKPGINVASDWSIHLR
T3 sequence (P14314 15-528 partner): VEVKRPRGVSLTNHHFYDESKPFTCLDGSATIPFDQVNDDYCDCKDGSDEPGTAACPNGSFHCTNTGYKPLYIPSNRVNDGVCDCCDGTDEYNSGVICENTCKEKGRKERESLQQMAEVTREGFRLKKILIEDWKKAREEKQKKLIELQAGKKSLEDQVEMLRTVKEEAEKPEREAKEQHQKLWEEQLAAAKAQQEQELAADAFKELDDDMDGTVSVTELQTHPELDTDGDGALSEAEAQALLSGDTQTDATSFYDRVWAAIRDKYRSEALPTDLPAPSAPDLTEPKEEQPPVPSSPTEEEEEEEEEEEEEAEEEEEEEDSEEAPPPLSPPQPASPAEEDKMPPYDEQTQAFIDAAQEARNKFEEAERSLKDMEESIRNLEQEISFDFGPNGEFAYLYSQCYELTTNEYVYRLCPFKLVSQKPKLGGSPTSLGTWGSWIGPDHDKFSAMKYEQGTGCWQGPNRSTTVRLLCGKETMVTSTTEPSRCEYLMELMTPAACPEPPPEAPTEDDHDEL

β-glucosidase GBA2 = molecular target: T4, β-glucosidase GBA2 (Homo sapiens, UniProt Q9HCG7); experiment: in vitro apparent IC50, GBA2-overexpressing HEK293T lysate; format: biochemical; conditions: for IC50: apparent IC50, pH 5.8, mean ± SD
T4 construct: expressed in transfected cells; host or cells: HEK293T
T4 sequence (Q9HCG7 1-927): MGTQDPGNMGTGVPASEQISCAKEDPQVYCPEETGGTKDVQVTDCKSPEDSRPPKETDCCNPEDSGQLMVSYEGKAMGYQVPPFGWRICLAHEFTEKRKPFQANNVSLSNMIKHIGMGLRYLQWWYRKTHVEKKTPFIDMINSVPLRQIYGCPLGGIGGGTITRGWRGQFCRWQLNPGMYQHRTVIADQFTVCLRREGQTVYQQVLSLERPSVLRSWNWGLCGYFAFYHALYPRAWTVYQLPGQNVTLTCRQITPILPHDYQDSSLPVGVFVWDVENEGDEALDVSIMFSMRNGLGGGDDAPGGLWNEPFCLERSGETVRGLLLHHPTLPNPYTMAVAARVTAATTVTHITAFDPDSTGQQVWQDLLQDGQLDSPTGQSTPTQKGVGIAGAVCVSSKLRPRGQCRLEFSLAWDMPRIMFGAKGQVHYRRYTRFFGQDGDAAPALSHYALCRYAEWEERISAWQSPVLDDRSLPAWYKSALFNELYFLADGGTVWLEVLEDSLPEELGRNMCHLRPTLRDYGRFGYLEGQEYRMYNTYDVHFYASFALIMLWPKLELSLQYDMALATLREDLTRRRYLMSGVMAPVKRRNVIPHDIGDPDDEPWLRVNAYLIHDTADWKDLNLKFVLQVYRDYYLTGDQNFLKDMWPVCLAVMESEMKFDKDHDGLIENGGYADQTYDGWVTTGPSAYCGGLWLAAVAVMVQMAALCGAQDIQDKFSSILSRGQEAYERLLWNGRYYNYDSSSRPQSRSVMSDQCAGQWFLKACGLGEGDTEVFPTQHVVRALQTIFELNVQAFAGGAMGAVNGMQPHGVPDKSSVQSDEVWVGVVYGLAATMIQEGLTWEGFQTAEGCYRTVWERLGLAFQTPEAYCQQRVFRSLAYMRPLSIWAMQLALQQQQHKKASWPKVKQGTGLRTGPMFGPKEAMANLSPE

| SMILES | IC50 [1] | IC50 [2] | IC50 [3] | IC50 [4] | IC50 (β-glucosidase GBA2) | inhibition at 500 µM (β-glucosidase GBA2; at 500 μM) | activity toward GANAB, in words [4] |
| --- | --- | --- | --- | --- | --- | --- | --- |
| O=S1(=O)N[C@@H]2[C@H](O)[C@@H](O)[C@H](O)[C@@H](CO)[C@@H]2N1 [compound 8] | > 500 µM | > 50 µM | > 500 µM | > 500 µM | > 500 µM |  |  |
| O=S1(=O)O[C@@H]2[C@H](O)[C@@H](O)[C@H](O)[C@@H](CO)[C@@H]2O1 [compound 3, 1,6-epi-cyclophellitol cyclosulfate, reference compound] | 0.048 µM |  | > 500 µM | 0.026 µM |  | 62% |  |
| CN1[C@H]2[C@H](CO)[C@@H](O)[C@H](O)[C@@H](O)[C@H]2OS1(=O)=O [compound 7] | > 1000 µM | > 50 µM | 93 µM and 93.4 µM | 132 ± 11.8 µM | 652 ± 87.3 µM |  |  |
| CN1[C@@H]2[C@H](O)[C@@H](O)[C@H](O)[C@@H](CO)[C@@H]2OS1(=O)=O [compound 5] | 485 ± 146 µM |  | > 500 µM | > 500 µM | 393 ± 93.7 µM |  | inactive |

From PMC9389588, “1,6-epi-Cyclophellitol Cyclosulfamidate Is a Bona Fide Lysosomal α-Glucosidase Stabilizer for the Treatment of Pompe Disease” (Journal of the American Chemical Society, 2022)
